From patent publication US9255090B2, “Heterocyclyl derivatives and their use as prostaglandin D2 receptor modulators” (Actelion Pharmaceuticals Ltd., priority 2012, dated 2016)
pIC50: −log10 of the molar value.

Experiments:
eosinophils = test: Eosinophil shape change assay with human plasma; assay type: cell-based; settings: human plasma (50%), PGD2 100 nM activation, antagonistic activity
Method in brief: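 Human polymorphonuclear cells stained with anti-CD49d-APC, combined with compound-preincubated human plasma (50% of final volume, 4×10^6 cells/ml) for 10 min at 37° C., then stimulated 5 min with 100 nM PGD2 and fixed. Flow cytometry scored percent eosinophils with increased forward scatter.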

hCRTH2 receptor = hCRTH2 receptor (Homo sapiens (Human), UniProt Q9Y5Y4); test: hCRTH2 receptor membranes radioligand (3H-PGD2) displacement assay; assay type: binding; settings: 3H-PGD2 radioligand displacement, HEK293-hCRTH2 membranes
Sequence of hCRTH2 receptor (Q9Y5Y4 whole entry): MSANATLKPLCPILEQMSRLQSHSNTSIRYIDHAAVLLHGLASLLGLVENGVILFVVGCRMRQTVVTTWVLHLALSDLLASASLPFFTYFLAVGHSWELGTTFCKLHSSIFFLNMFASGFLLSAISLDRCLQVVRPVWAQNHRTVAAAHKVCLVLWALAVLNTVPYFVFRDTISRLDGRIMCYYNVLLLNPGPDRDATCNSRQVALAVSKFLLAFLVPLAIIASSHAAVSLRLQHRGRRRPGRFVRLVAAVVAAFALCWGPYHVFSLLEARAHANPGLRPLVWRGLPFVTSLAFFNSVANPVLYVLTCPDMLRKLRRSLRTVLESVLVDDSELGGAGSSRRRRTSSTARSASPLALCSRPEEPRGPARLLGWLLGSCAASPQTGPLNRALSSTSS
Method in brief: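 HEK293-hCRTH2 membranes, 20 μg/well; 3H-PGD2 added at 2.5 nM; binding buffer 50 mM Tris, 10 mM MnCl2, 1 mM EDTA, pH 7.0; 90 min RT; GF/C filtration, scintillation count. Nonspecific binding: PGD2 at […].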

Compound	pIC50 (eosinophils; Homo sapiens, Eosinophil)	pIC50 (hCRTH2 receptor)	pIC50 (eosinophils)
CCOc1cc(CC(=O)O)ccc1-c1ccc(F)c2c1CN(C(=O)CC1OCCc3ccccc31)CC2 (stereo not shown) [Example 205, {3-Ethoxy-4-[5-fluoro-2-(2-isochroman-1-yl-acetyl)-1,2,3,4-tetrahydro-isoquinolin-8-yl]-phenyl}-acetic acid]	7.77	9.00	
CCOc1cc(CC(=O)O)ccc1-c1ccc(F)c2c1CN(C(=O)CC1OCCc3ccccc31)CC2 (stereo not shown) [Example 206, {3-Ethoxy-4-[5-fluoro-2-(2-isochroman-1-yl-acetyl)-1,2,3,4-tetrahydro-isoquinolin-8-yl]-phenyl}-acetic acid]		8.62	7.85
CCOc1ccc(CC(=O)O)cc1-c1ccc(F)c2c1CN(C(=O)CC(C)c1ccc(F)cc1)CC2 (stereo not shown) [Example 211, (4-Ethoxy-3-{5-fluoro-2-[3-(4-fluoro-phenyl)-butyryl]-1,2,3,4-tetrahydro-isoquinolin-8-yl}-phenyl)-acetic acid]	8.15	8.59	
CCOc1ccc(CC(=O)O)cc1-c1ccc(F)c2c1CN(C(=O)C(C)Cc1ccccc1)CC2 (stereo not shown) [Example 214]	7.96	8.51	
CC(C)Oc1cc(CC(=O)O)ccc1-c1ccc(F)c2c1CN(C(=O)OCc1ccccc1)CC2 [Example 217, 8-(4-Carboxymethyl-2-isopropoxy-phenyl)-5-fluoro-3,4-dihydro-1H-isoquinoline-2-carboxylic acid benzyl ester]	7.34	8.64	
CCOc1ccc(CC(=O)O)cc1-c1ccc(F)c2c1CN(C(=O)C[C@@H](C)c1ccccc1)CC2 [Example 221, {4-Ethoxy-3-[5-fluoro-2-((R)-3-phenyl-butyryl)-1,2,3,4-tetrahydro-isoquinolin-8-yl]-phenyl}-acetic acid]	7.47	8.92	
CCOc1ccc(CC(=O)O)cc1-c1ccc(F)c2c1CN(C(=O)CC1(c3ccccc3)CC1)CC2 [Example 222, (4-Ethoxy-3-{5-fluoro-2-[2-(1-phenyl-cyclopropyl)-acetyl]-1,2,3,4-tetrahydro-isoquinolin-8-yl}-phenyl)-acetic acid]	7.68	7.58	
CCOc1ccc(CC(=O)O)cc1-c1ccc(F)c2c1CN(C(=O)CC(C)(C)c1ccc(F)cc1)CC2 [Example 223, (4-Ethoxy-3-{5-fluoro-2-[3-(4-fluoro-phenyl)-3-methyl-butyryl]-1,2,3,4-tetrahydro-isoquinolin-8-yl}-phenyl)-acetic acid]	7.72	7.82	
CCOc1ccc(CC(=O)O)cc1-c1ccc(F)c2c1CN(C(=O)CC(C)(C)c1ccccc1)CC2 [Example 225, {4-Ethoxy-3-[5-fluoro-2-(3-methyl-3-phenyl-butyryl)-1,2,3,4-tetrahydro-isoquinolin-8-yl]-phenyl}-acetic acid]	7.43	7.93	
CCOc1cc(CC(=O)O)ccc1-c1ccc(F)c2c1CN(C(=O)CC1(c3ccccc3)CC1)CC2 [Example 230, (3-Ethoxy-4-{5-fluoro-2-[2-(1-phenyl-cyclopropyl)-acetyl]-1,2,3,4-tetrahydro-isoquinolin-8-yl}-phenyl)-acetic acid]	7.72	9.00	
CCOc1cc(CC(=O)O)ccc1-c1ccc(F)c2c1CN(C(=O)C[C@@H](C)c1ccccc1)CC2 [Example 234, {3-Ethoxy-4-[5-fluoro-2-((R)-3-phenyl-butyryl)-1,2,3,4-tetrahydro-isoquinolin-8-yl]-phenyl}-acetic acid]	7.33	9.05	
CCOc1cc(CC(=O)O)ccc1-c1ccc(F)c2c1CN(C(=O)CC(C)(C)c1ccc(F)cc1)CC2 [Example 237, (3-Ethoxy-4-{5-fluoro-2-[3-(4-fluoro-phenyl)-3-methyl-butyryl]-1,2,3,4-tetrahydro-isoquinolin-8-yl}-phenyl)-acetic acid]	8.05	9.52	
CCOc1cc(CC(=O)O)ccc1-c1ccc(F)c2c1CN(C(=O)CC(C)(C)c1ccccc1)CC2 [Example 238, {3-Ethoxy-4-[5-fluoro-2-(3-methyl-3-phenyl-butyryl)-1,2,3,4-tetrahydro-isoquinolin-8-yl]-phenyl}-acetic acid]	7.82	9.22	
COc1ccc(CC(=O)O)cc1-c1ccc(F)c2c1CN(C(=O)CC(C)(C)c1cccc(F)c1)CC2 [Example 252, (3-{5-Fluoro-2-[3-(3-fluoro-phenyl)-3-methyl-butyryl]-1,2,3,4-tetrahydro-isoquinolin-8-yl}-4-methoxy-phenyl)-acetic acid]	6.59	7.88	
COc1ccc(CC(=O)O)cc1-c1ccc(F)c2c1CN(C(=O)CC1(c3ccccc3)CC1)CC2 [Example 258, (3-{5-Fluoro-2-[2-(1-phenyl-cyclopropyl)-acetyl]-1,2,3,4-tetrahydro-isoquinolin-8-yl}-4-methoxy-phenyl)-acetic acid]	7.00	8.55	

Results, then the molecule that gave them:

pIC50 (eosinophils; Homo sapiens, Eosinophil)	pIC50 (hCRTH2 receptor)	pIC50 (eosinophils)	Compound
7.12	8.17		CCOc1ccc(CC(=O)O)cc1-c1ccc(F)c2c1CN(C(=O)CC1(c3cccc(F)c3)CC1)CC2 [Example 275, [4-Ethoxy-3-(5-fluoro-2-{2-[1-(3-fluoro-phenyl)-cyclopropyl]-acetyl}-1,2,3,4-tetrahydro-isoquinolin-8-yl)-phenyl]-acetic acid]
7.68	8.72		CCOc1ccc(CC(=O)O)cc1-c1ccc(F)c2c1CN(C(=O)CC1(c3ccc(F)cc3)CC1)CC2 [Example 277, [4-Ethoxy-3-(5-fluoro-2-{2-[1-(4-fluoro-phenyl)-cyclopropyl]-acetyl}-1,2,3,4-tetrahydro-isoquinolin-8-yl)-phenyl]-acetic acid]
8.15	8.77		CCOc1ccc(CC(=O)O)cc1-c1ccc(F)c2c1CN(C(=O)CCc1ccc(F)cc1)CC2 [Example 310, (4-Ethoxy-3-{5-fluoro-2-[3-(4-fluoro-phenyl)-propionyl]-1,2,3,4-tetrahydro-isoquinolin-8-yl}-phenyl)-acetic acid]
7.70	8.14		CCOc1cc(CC(=O)O)ccc1-c1ccc(F)c2c1CN(C(=O)CCc1cccc(C)n1)CC2 [Example 321, (3-Ethoxy-4-{5-fluoro-2-[3-(6-methyl-pyridin-2-yl)-propionyl]-1,2,3,4-tetrahydro-isoquinolin-8-yl}-phenyl)-acetic acid]
7.68	8.38		CCOc1ccc(CC(=O)O)cc1-c1ccc(F)c2c1CN(C(=O)CCc1cccc(C)n1)CC2 [Example 329, (4-Ethoxy-3-{5-fluoro-2-[3-(6-methyl-pyridin-2-yl)-propionyl]-1,2,3,4-tetrahydro-isoquinolin-8-yl}-phenyl)-acetic acid]
7.80	8.57		CCOc1ccc(CC(=O)O)cc1-c1ccc(F)c2c1CN(C(=O)CCc1ccccn1)CC2 [Example 348, {4-Ethoxy-3-[5-fluoro-2-(3-pyridin-2-yl-propionyl)-1,2,3,4-tetrahydro-isoquinolin-8-yl]-phenyl}-acetic acid]
7.96	8.96		COc1cc(CC(=O)O)ccc1-c1ccc(F)c2c1CN(C(=O)CC(C)(C)c1ccc(F)cc1)CC2 [Example 358, (4-{5-Fluoro-2-[3-(4-fluoro-phenyl)-3-methyl-butyryl]-1,2,3,4-tetrahydro-isoquinolin-8-yl}-3-methoxy-phenyl)-acetic acid]
7.70	8.62		COc1ccc(CC(=O)O)cc1-c1ccc(F)c2c1CN(C(=O)CC(C)(C)c1ccc(F)cc1)CC2 [Example 363, (3-{5-Fluoro-2-[3-(4-fluoro-phenyl)-3-methyl-butyryl]-1,2,3,4-tetrahydro-isoquinolin-8-yl}-4-methoxy-phenyl)-acetic acid]
7.49	8.41		CCOc1ccc(CC(=O)O)cc1-c1ccc(F)c2c1CN(C(=O)OCc1cnccn1)CC2 [Example 365, 8-(5-Carboxymethyl-2-ethoxy-phenyl)-5-fluoro-3,4-dihydro-1H-isoquinoline-2-carboxylic acid pyrazin-2-ylmethyl ester]
7.19	8.38		CCOc1ccc(CC(=O)O)cc1-c1ccc(F)c2c1CN(C(=O)OCc1ncc(C)cc1F)CC2 [Example 366, 8-(5-Carboxymethyl-2-ethoxy-phenyl)-5-fluoro-3,4-dihydro-1H-isoquinoline-2-carboxylic acid 3-fluoro-5-methyl-pyridin-2-ylmethyl ester]
7.34	8.26		CCOc1ccc(CC(=O)O)cc1-c1ccc(F)c2c1CN(C(=O)O[C@@H](C)c1ccccc1)CC2 [Example 368, 8-(5-Carboxymethyl-2-ethoxy-phenyl)-5-fluoro-3,4-dihydro-1H-isoquinoline-2-carboxylic acid (S)-1-phenyl-ethyl ester]
6.58	8.06		CCOc1ccc(CC(=O)O)cc1-c1ccc(F)c2c1CN(C(=O)OCC1CCCC1)CC2 [Example 369, 8-(5-Carboxymethyl-2-ethoxy-phenyl)-5-fluoro-3,4-dihydro-1H-isoquinoline-2-carboxylic acid cyclopentylmethyl ester]
7.12	8.15		CCOc1ccc(CC(=O)O)cc1-c1ccc(F)c2c1CN(C(=O)OCCC(C)C)CC2 [Example 370, 8-(5-Carboxymethyl-2-ethoxy-phenyl)-5-fluoro-3,4-dihydro-1H-isoquinoline-2-carboxylic acid 3-methyl-butyl ester]
7.64	9.22		CCOc1ccc(CC(=O)O)cc1-c1ccc(F)c2c1CN(C(=O)OCc1cccc(C)n1)CC2 [Example 371, 8-(5-Carboxymethyl-2-ethoxy-phenyl)-5-fluoro-3,4-dihydro-1H-isoquinoline-2-carboxylic acid 6-methyl-pyridin-2-ylmethyl ester]
